This test deals with CK2A1 (CK2α/β) (Homo sapiens, UniProt P68400). In words: CK2 kinase assay, CK2A1 (CK2α/β). The conditions noted are these: Table A; read-out: CK2A1 (CK2α/β) (IC50). Format: biochemical.
Sequence of CK2A1 (CK2α/β) (P68400 whole entry, species assumed): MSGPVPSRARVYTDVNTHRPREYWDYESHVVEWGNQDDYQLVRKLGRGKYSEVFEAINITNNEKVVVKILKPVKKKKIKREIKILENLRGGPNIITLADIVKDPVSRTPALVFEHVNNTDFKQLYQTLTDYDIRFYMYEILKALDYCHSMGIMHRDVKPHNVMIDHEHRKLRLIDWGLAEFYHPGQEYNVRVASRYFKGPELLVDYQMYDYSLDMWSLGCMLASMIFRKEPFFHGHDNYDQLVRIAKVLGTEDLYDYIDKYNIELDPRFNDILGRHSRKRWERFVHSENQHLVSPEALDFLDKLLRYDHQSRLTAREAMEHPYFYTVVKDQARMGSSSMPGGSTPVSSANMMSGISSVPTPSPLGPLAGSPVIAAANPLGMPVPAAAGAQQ
Sequence of CK2A1 (CK2α/β) (P67870 whole entry partner, species assumed): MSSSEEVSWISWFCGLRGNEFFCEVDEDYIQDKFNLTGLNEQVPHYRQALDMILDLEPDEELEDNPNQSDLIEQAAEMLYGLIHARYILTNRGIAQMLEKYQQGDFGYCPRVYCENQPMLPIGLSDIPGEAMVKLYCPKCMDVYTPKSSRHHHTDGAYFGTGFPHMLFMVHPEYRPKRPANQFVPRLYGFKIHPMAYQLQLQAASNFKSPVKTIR
In the case of `CN1CCN(C2CN(c3cc(C#N)cc(Nc4nc(NC5CC5)c5ncc(C#N)n5n4)c3Cl)C2)CC1` [Example 151, 2-((2-chloro-5-cyano-3-(3-(4-methylpiperazin-1-yl)azetidin-1-yl)phenyl)amino)-4-(cyclopropylamino)imidazo[2,1-f][1,2,4]triazine-7-carbonitrile], the IC50 was 0.59 nM.

Consider `N#Cc1cc(Nc2nc(NC3CC3)c3ncc(C#N)n3n2)c(Cl)c(N2CC(N3CCOCC3)C2)c1` [Example 152, 2-((2-chloro-5-cyano-3-(3-(4-morpholinyl)-1-azetidinyl)phenyl)amino)-4-(cycloproplamino)imidazo [2,1-f][1,2,4]triazine-7-carbonitrile], for which the IC50 amounted to 0.53 nM.

Take `COC(=O)N1CCN(C2CN(c3cc(C#N)cc(Nc4nc(NC5CC5)c5ncc(C#N)n5n4)c3Cl)C2)CC1` [Example 153, methyl 4-(1-(2-chloro-5-cyano-3-((7-cyano-4-(cyclopropylamino)imidazo [2,1-f][1,2,4]triazin-2-yl)amino)phenyl)-3-azetidinyl)-1-piperazinecarboxylate]: the IC50 is 0.65 nM.

Regarding `N#Cc1cc(Nc2nc(NC3CC3)c3ncc(C#N)n3n2)c(Cl)c(N2CC(N3CCNCC3)C2)c1` [Example 155, 2-((2-chloro-5-cyano-3-(3-(1-piperazinyl)-1-azetidinyl)phenyl)amino)-4-(cyclopropylamino)imidazo [2,1-f][1,2,4]triazine-7-carbonitrile], the IC50 worked out at 0.42 nM.

In the case of `CN1CCN(C2CN(c3cc(C#N)cc(Nc4nc(NC5CC5)c5ncc(C#N)n5n4)c3Cl)C2)CC1=O` [Example 156, 2-((2-chloro-5-cyano-3-(3-(4-methyl-3-oxo-1-piperazinyl)-1-azetidinyl)phenyl)amino)-4-(cyclopropylamino)imidazo [2,1-f][1,2,4]triazine-7-carbonitrile], the IC50 turned out to be 0.36 nM.

For `CC1(O)CCN(C2CN(c3cc(C#N)cc(Nc4nc(NC5CC5)c5ncc(C#N)n5n4)c3Cl)C2)CC1` [Example 157, 2-((2-chloro-5-cyano-3-(3-(4-hydroxy-4-methyl-1-piperidinyl)-1-azetidinyl)phenyl)amino)-4-(cyclopropylamino)imidazo [2,1-f][1,2,4]triazine-7-carbonitrile], the IC50 came to 0.8 nM.

On to `CC(C)(O)C1CCN(C2CN(c3cc(C#N)cc(Nc4nc(NC5CC5)c5ncc(C#N)n5n4)c3Cl)C2)CC1` [Example 158], for which the IC50 was found to be 0.65 nM.

On to `COC1CCN(C2CN(c3cc(C#N)cc(Nc4nc(NC5CC5)c5ncc(C#N)n5n4)c3Cl)C2)CC1` [Example 164], for which the IC50 came out at 0.57 nM.

Regarding `N#Cc1cnc2c(NC3CC3)nc(Nc3cc(C(N)=O)cc(N4CC(NC5COC5)C4)c3Cl)nn12` [Example 166, 4-chloro-3-((7-cyano-4-(cyclopropylamino)imidazo [2,1-f][1,2,4]triazin-2-yl)amino)-5-(3-(3-oxetanylamino)-1-azetidinyl)benzamide], the IC50 came out at 0.44 nM.

`CC1(O)CN(C2CN(c3cc(C#N)cc(Nc4nc(NC5CC5)c5ncc(C#N)n5n4)c3Cl)C2)C1` [Example 168, 2-((2-chloro-5-cyano-3-(3-hydroxy-3-methyl-1,3′-biazetidin-1′-yl)phenyl)amino)-4-(cyclopropylamino)imidazo [2,1-f][1,2,4]triazine-7-carbonitrile]: the IC50 is 0.68 nM.

Regarding `C[N+]1([O-])CCN(C2CN(c3cc(C#N)cc(Nc4nc(NC5CC5)c5ncc(C#N)n5n4)c3Cl)C2)CC1` [Example 169, 2-((2-chloro-5-cyano-3-(3-(4-methyl-4-oxido-1-piperazinyl)-1-azetidinyl)phenyl)amino)-4-(cyclopropylamino)imidazo [2,1-f][1,2,4]triazine-7-carbonitrile], the IC50 is 2.59 nM.

With `C[N+]1(C)CCN(C2CN(c3cc(C#N)cc(Nc4nc(NC5CC5)c5ncc(C#N)n5n4)c3Cl)C2)CC1` [Example 170, 4-(1-(2-chloro-5-cyano-3-((7-cyano-4-(cyclopropylamino)imidazo [2,1-f][1,2,4]triazin-2-yl)amino)phenyl)-3-azetidinyl)-1,1-dimethylpiperazin-1-ium], the IC50 worked out at 0.93 nM.

With `CS(=O)(=O)N[C@@H]1CCN(c2cc(C#N)cc(Nc3nc(NC4CC4)c4ncc(C#N)n4n3)c2Cl)C[C@H]1O` [Example 175, N-((3R,4R)-1-(2-chloro-5-cyano-3-((7-cyano-4-(cyclopropylamino)imidazo[2,1-f][1,2,4]triazin-2-yl)amino)phenyl)-3-hydroxypiperidin-4-yl)methanesulfonamide], the IC50 was found to be 1.06 nM.

As for `N#Cc1cc(Nc2nc(NC3CC3)c3ncc(C#N)n3n2)c(Cl)c(N2CC[C@@H](NC(=O)OCCN3CCOCC3)[C@H](O)C2)c1` [Example 178, 2-morpholinoethyl ((3R,4R)-1-(2-chloro-5-cyano-3-((7-cyano-4-(cyclopropylamino)imidazo[2,1-f][1,2,4]triazin-2-yl)amino)phenyl)-3-hydroxypiperidin-4-yl)carbamate], the IC50 was 0.77 nM.

`COC(=O)N[C@H]1CCN(c2cc(C#N)cc(Nc3nc(NC4CC4)c4ncc(C#N)n4n3)c2Cl)C[C@@H]1OC(=O)CN` [Example 193, (3S,4S)-1-(2-chloro-5-cyano-3-((7-cyano-4-(cyclopropylamino)imidazo[2,1-f][1,2,4]triazin-2-yl)amino)phenyl)-4-((methoxycarbonyl)amino)-3-piperidinyl glycinate]: the IC50 came out at 6 nM.

In the case of `COC(=O)N[C@@H]1CCN(c2cc(C#N)cc(Nc3nc(NC4CC4)c4ncc(C#N)n4n3)c2Cl)C[C@H]1OC(=O)C1(N)CC1` [Example 194, (3R,4R)-1-(2-chloro-5-cyano-3-((7-cyano-4-(cyclopropylamino)imidazo[2,1-f][1,2,4]triazin-2-yl)amino)phenyl)-4-((methoxycarbonyl)amino)-3-piperidinyl 1-aminocyclopropanecarboxylate], the IC50 worked out at 1.25 nM.

In the case of `COC(=O)N[C@@H]1CCN(c2cc(C#N)cc(Nc3nc(NC4CC4)c4ncc(C#N)n4n3)c2Cl)C[C@H]1OC(=O)[C@H](C)N` [Example 195, (3R,4R)-1-(2-chloro-5-cyano-3-((7-cyano-4-(cyclopropylamino)imidazo[2,1-f][1,2,4]triazin-2-yl)amino)phenyl)-4-((methoxycarbonyl)amino)-3-piperidinyl L-alaninate], the IC50 is 0.5 nM.

In the case of `COC(=O)N[C@@H]1CCN(c2cc(C#N)cc(Nc3nc(NC4CC4)c4ncc(C#N)n4n3)c2Cl)C[C@H]1OC(=O)CN1CCOCC1` [Example 196, (3R,4R)-1-(2-chloro-5-cyano-3-((7-cyano-4-(cyclopropylamino)imidazo[2,1-f][1,2,4]triazin-2-yl)amino)phenyl)-4-((methoxycarbonyl)amino)-3-piperidinyl 4-morpholinylacetate], the IC50 turned out to be 0.8 nM.

With `COC(=O)N[C@@H]1CCN(c2cc(C#N)cc(Nc3nc(NC4CC4)c4ncc(C#N)n4n3)c2Cl)C[C@H]1OC(=O)C(C)OP(=O)(O)O` (stereo partly drawn) [Example 197, (3R,4R)-1-(2-chloro-5-cyano-3-((7-cyano-4-(cyclopropylamino)imidazo[2,1-f][1,2,4]triazin-2-yl)amino)phenyl)-4-((methoxycarbonyl)amino)-3-piperidinyl 2-(phosphonooxy)propanoate], the IC50 is 5 nM.

Consider `COC(=O)N[C@H]1CCN(c2cc(C#N)cc(Nc3nc(NC4CC4)c4ncc(C#N)n4n3)c2Cl)C[C@@H]1OC(=O)/C=C/C(=O)O` [Example 198, (2E)-4-(((3S,4S)-1-(2-chloro-5-cyano-3-((7-cyano-4-(cyclopropylamino)imidazo[2,1-f][1,2,4]triazin-2-yl)amino)phenyl)-4-((methoxycarbonyl)amino)-3-piperidinyl)oxy)-4-oxo-2-butenoic acid], for which the IC50 came out at 0.65 nM.

With `COC(=O)N[C@H]1CCN(c2cc(C#N)cc(Nc3nc(NC4CC4)c4ncc(C#N)n4n3)c2Cl)C[C@@H]1OC(=O)Cc1ccc(OP(=O)(O)O)cc1` [Example 199, (3S,4S)-1-(2-chloro-5-cyano-3-((7-cyano-4-(cyclopropylamino)imidazo[2,1-f][1,2,4]triazin-2-yl)amino)phenyl)-4-((methoxycarbonyl)amino)-3-piperidinyl (4-(phosphonooxy)phenyl)acetate], the IC50 was determined as 0.45 nM.

In the case of `COC(=O)Nc1cc(Nc2nc(NC3CC3)c3ncc(C#N)n3n2)c(Cl)c(N2CCN(C)CC2)c1` [Example 200, methyl (4-chloro-3-((7-cyano-4-(cyclopropylamino)imidazo[2,1-f][1,2,4]triazin-2-yl)amino)-5-(4-methylpiperazin-1-yl)phenyl)carbamate], the IC50 came to 2.51 nM.

In the case of `COC(=O)Nc1cc(Nc2nc(NC3CC3)c3ncc(C#N)n3n2)c(Cl)c(N2CC(N3CCOCC3)C2)c1` [Example 201, methyl (4-chloro-3-((7-cyano-4-(cyclopropylamino)imidazo[2,1-f][1,2,4]triazin-2-yl)amino)-5-(3-(4-morpholinyl)-1-azetidinyl)phenyl)carbamate], the IC50 was determined as 2.95 nM.

Take `COC(=O)Nc1cc(Nc2nc(NC3CC3)c3ncc(C#N)n3n2)c(Cl)c(N2CC(N3CCN(C)CC3)C2)c1` [Example 203, methyl (4-chloro-3-((7-cyano-4-(cyclopropylamino)imidazo[2,1-f][1,2,4]triazin-2-yl)amino)-5-(3-(4-methyl-1-piperazinyl)-1-azetidinyl)phenyl)carbamate]: the IC50 worked out at 1.79 nM.

Consider `COC(=O)Nc1cc(Nc2nc(NC3CC3)c3ncc(C#N)n3n2)c(Cl)c(N2CC(N3CCC(OC)CC3)C2)c1` [Example 204, methyl (4-chloro-3-((7-cyano-4-(cyclopropylamino)imidazo[2,1-f][1,2,4]triazin-2-yl)amino)-5-(3-(4-methoxy-1-piperidinyl)-1-azetidinyl)phenyl)carbamate], for which the IC50 was 0.87 nM.

Regarding `COC(=O)Nc1cc(Nc2nc(NC3CC3)c3ncc(C#N)n3n2)c(Cl)c(N2CCC(N3CCOCC3)CC2)c1` [Example 205, methyl (4-chloro-3-((7-cyano-4-(cyclopropylamino)imidazo[2,1-f][1,2,4]triazin-2-yl)amino)-5-(4-(4-morpholinyl)-1-piperidinyl)phenyl)carbamate], the IC50 was determined as 1.95 nM.

The values are drawn from patent US9273057B2 (Bristol-Myers Squibb Company, priority 2012, dated 2016).
